Experimental data as given in patent publication US20260202298A1, “HIGH-THROUGHPUT MEASUREMENT OF P[…] PARTICLE COUNTS, DISTRIBUTIONS, AND COMPOSITION” (priority 2021, published 2026).

Experiments:
[1] = system: XUd (WT1) or PR8 (WT2) influenza viruses; assay type: cell-based, influenza virus in MDCK cells; settings: at higher concentrations
[2] = system: A/PR8/34 or A/Ud/72 (with X31 or A/Aichi/68 HA) IAV; assay type: cell-based, influenza A virus in human lung epithelial cell line Calu3; settings: FIG. 12B, PR8 and XUd viruses

## CCOC(=O)C1=C[C@@H](OC(CC)CC)[C@H](NC(C)=O)[C@@H](N)C1 [oseltamivir]
[1]
  effect on virion yield: reduces virion yield
  size of individual virus particles: remains enriched in spherical particles
  virion aggregation: induces virion aggregation

## COC(=O)OCOc1c2n(ccc1=O)N([C@@H]1c3ccccc3SCc3c1ccc(F)c3F)[C@@H]1COCCN1C2=O [baloxavir, baloxavir marboxil]
[2]
  virion yield vs. fraction of filamentous particles produced: lower virion yields are associated with increased fraction of filamentous particles produced
